# Assay results reported in US10899754B2, “Modulators of indoleamine 2,3-dioxygenase” (GLAXOSMITHKLINE INTELLECTUAL PROPERTY DEVELOPMENT LIMITED, priority 2016, dated 2021).
# Columns and labels:
# [1] = tested on: human epithelial HeLa cells; assay: HeLa cytotoxicity assay (CellTiter-Glo); assay type: cell-based; conditions: pCC50
# Experimental: (§1) Compounds of the present invention were tested via high-throughput cellular assays utilizing detection of kynurenine via mass spectrometry and cytotoxicity as end-points. For the mass spectrometry and cytotoxicity assays, human epithelial HeLa cells (CCL-2; ATCC®, Manassas, Va.) were stimulated with human interferon-γ (IFN-γ) (Sigma-Aldrich Corporation, St. Louis, Mo.) to induce the expression of indoleamine 2, 3-dioxygenase (IDO1). Compounds with IDO1 inhibitory properties decreased the amount of kynurenine produced by the cells via the tryptophan catabolic pathway. Cellular toxicity due to the effect of compound treatment was measured using CellTiter-Glo® reagent (CTG) (Promega Corporation, Madison, Wis.), which is based on luminescent detection of ATP, an indicator of metabolically active cells.
# (§2) In preparation for the assays, test compounds were serially diluted 3-fold in DMSO from a typical top concentration of 1 mM or 5 mM and plated at 0.5 μL in 384-well, polystyrene, clear bottom, tissue culture treated plates with lids (Greiner Bio-One, Kremsmünster, Austria) to generate 11-point dose response curves. Low control wells (0% kynurenine or 100% cytotoxicity) contained either 0.5 μL of DMSO in the presence of unstimulated (−IFN-γ) HeLa cells for the mass spectrometry assay or 0.5 μL of DMSO in the absence of cells for the cytotoxicity assay, and high control wells (100% kynurenine or 0% cytotoxicity) contained 0.5 μL of DMSO in the presence of stimulated (+IFN-γ) HeLa cells for both the mass spectrometry and cytotoxicity assays.
# (§3) Frozen stocks of HeLa cells were washed and recovered in DMEM high glucose medium with HEPES (Thermo Fisher Scientific, Inc., Waltham, Mass.) supplemented with 10% v/v certified fetal bovine serum (FBS) (Thermo Fisher Scientific, Inc., Waltham, Mass.), and 1× penicillin-streptomycin antibiotic solution (Thermo Fisher Scientific, Inc., Waltham, Mass.). The cells were diluted to 100,000 cells/mL in the supplemented DMEM medium. 50 μL of either the cell suspension, for the mass spectrometry assay, or medium alone, for the cytotoxicity assay, were added to the low control wells, on the previously prepared 384-well compound plates, resulting in 5,000 cells/well or 0 cells/well respectively. IFN-γ was added to the remaining cell suspension at a final concentration of 10 nM, and 50 μL of the stimulated cells were added to all remaining wells on the 384-well compound plates. The plates, with lids, were then placed in a 37° C., 5% CO2 humidified incubator for 2 days.
# (§4) Following incubation, the 384-well plates were removed from the incubator and allowed to equilibrate to room temperature for 30 minutes. For the cytotoxicity assay, CellTiter-Glo® was prepared according to the manufacturer's instructions, and 10 μL were added to each plate well. After a twenty minute incubation at room temperature, luminescence was read on an EnVision® Multilabel Reader (PerkinElmer Inc., Waltham, Mass.). For the mass spectrometry assay, 10 μL of supernatant from each well of the compound-treated plates were added to 40 μL of acetonitrile, containing 10 μM of an internal standard for normalization, in 384-well, polypropylene, V-bottom plates (Greiner Bio-One, Kremsmünster, Austria) to extract the organic analytes. Following centrifugation at 2000 rpm for 10 minutes, 10 μL from each well of the acetonitrile extraction plates were added to 90 μL of sterile, distilled H2O in 384-well, polypropylene, V-bottom plates for analysis of kynurenine and the internal standard on the RapidFire 300 (Agilent Technologies, Santa Clara, Calif.) and 4000 QTRAP MS (SCIEX, Framingham, Mass.). MS data were integrated using Agilent Technologies' RapidFire Integrator software, and data were normalized for analysis as a ratio of kynurenine to the internal standard. […]
# [2] = molecular target: indoleamine 2, 3-dioxygenase (IDO1) (Homo sapiens, UniProt P14902); assay: IDO1 HeLa RapidFire MS assay (kynurenine detection by mass spectrometry); assay type: cell-based; set-up: to induce the expression of indoleamine 2, 3-dioxygenase (IDO1); conditions: HeLa cells, pIC50, read-out: IDO1_HELA_PXC50 (converted)
# indoleamine 2, 3-dioxygenase (IDO1), sequence (P14902 whole entry): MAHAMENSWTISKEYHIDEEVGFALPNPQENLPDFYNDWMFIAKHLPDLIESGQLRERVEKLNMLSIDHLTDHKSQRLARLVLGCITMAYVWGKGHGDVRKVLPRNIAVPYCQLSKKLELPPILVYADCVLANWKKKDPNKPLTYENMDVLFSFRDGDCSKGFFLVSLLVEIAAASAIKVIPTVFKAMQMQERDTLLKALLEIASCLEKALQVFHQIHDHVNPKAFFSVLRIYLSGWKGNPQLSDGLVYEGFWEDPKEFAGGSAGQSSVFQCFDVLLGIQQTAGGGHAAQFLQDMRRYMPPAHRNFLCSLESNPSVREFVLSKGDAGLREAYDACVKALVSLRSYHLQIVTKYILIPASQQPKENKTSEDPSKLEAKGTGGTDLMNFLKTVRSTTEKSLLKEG
# Experimental: IDO1 HeLa RapidFire MS Assay
# as §1, §2, §3, §4
Structure (SMILES),HELA_IDO1_TOX_PXC50 [1],IC50 [2]
"CC(C)CN(CC(C)C)c1ccc(C(C)CC(=O)O)cc1Nc1nc(C2CCOCC2)cs1 (stereo not shown) [example 138, 3-{4-[bis(2-methylpropyl)amino]-3-{[4-(oxan-4-yl)-1,3-thiazol-2-yl]amino}phenyl}butanoic acid]",<4.3,5.01 µM
"CC(C)CN(CC(C)C)c1ccc(C(C)CC(=O)O)cc1Nc1noc(-c2ccccc2)n1.O=C(O)C(F)(F)F (stereo not shown) [example 122, 3-{4-[bis(2-methylpropyl)amino]-3-[(5-phenyl-1,2,4-oxadiazol-3-yl)amino]phenyl}butanoic acid]",<4.3,25.1 µM
"CC(C)CN(CC(C)C)c1ccc(C(C)CC(=O)O)cc1Nc1c(Nc2ccccc2)c(=O)c1=O (stereo not shown) [example 124, 3-{4-[bis(2-methylpropyl)amino]-3-{(3,4-dioxo-2-(phenylamino)cyclobut-1-en-1-yl]amino}phenyl}butanoic acid]",<4.3,12.6 µM
"CC(C)CN(c1ccc(-c2ccncc2C(=O)O)cc1Nc1nc2ccccc2o1)C1CCCCC1 [example 281, 4-{3-[(1,3-benzoxazol-2-yl)amino]-4-[cyclohexyl(2-methylpropyl)amino]phenyl}pyridine-3-carboxylic acid]",<5,0.1 µM
"CC(C)CN(c1ccc(C(C)CC(=O)O)cc1Nc1nc(Cl)ns1)C1COC1 (stereo not shown) [example 205, 3-{3-[(3-chloro-1,2,4-thiadiazol-5-yl)amino]-4-[{2-methylpropyl)(oxetan-3-yl)amino]phenyl}butanoic acid]",<5,> 10 µM
"COCc1nnc(Nc2cc([C@H](C)CC(=O)O)ccc2N(CC(C)C)CC(C)C)[nH]1 [example 190, (3R)-3-{4-[bis(2-methylpropyl)amino]-3-{[5-(methoxymethyl)-4H-1,2,4-triazol-3-yl]amino}phenyl}butanoic acid]",<5,0.0794 µM
"CC(C)CN(c1ccc(-c2ccccc2C(=O)O)cc1Nc1nc2ccccc2[nH]1)C1CCOCC1 [example 296, 3′-[(1H-1,3-benzodiazol-2-yl)amino]-4′-[(2-methylpropyl)(oxan-4-yl)amino]-[1,1′-biphenyl]-2-carboxylic acid]",<5,0.631 µM
"COCc1ccc(Nc2cc(C(C)CC(=O)O)ccc2N(CC(C)C)CC(C)C)nc1 (stereo not shown) [example 193, 3-{4-[bis(2-methylpropyl)amino]-3-{[5-(methoxymethyl)pyridin-2-yl]amino}phenyl}butanoic acid]",<5,0.1 µM
"CC(C)CN(c1ccc(C(C)CC(=O)O)cc1NC1COC1)C1CCCCC1 (stereo not shown) [example 129, 3-{4-[cyclohexyl(2-methylpropyl)amino]-3-[(oxetan-3-yl)amino]phenyl}butanoic acid]",<4.3,1.58 µM
"Cc1nnc(Nc2cc([C@H](C)CC(=O)O)ccc2N(CC(C)C)CC(C)C)s1 [example 186, (3R)-3-{4-[bis(2-methylpropyl)amino]-3-[(5-methyl-1,3,4-thiadiazol-2-yl)amino]phenyl}butanoic acid]",<5,0.0794 µM
"CC(C)CN(c1ccc(-c2ccccc2C(=O)O)cc1Nc1nc(C(F)(F)F)ns1)C1CCN(C(=O)OC(C)(C)C)CC1 [example 273, 4′-({1-[(tert-butoxy)carbonyl]piperidin-4-yl)-(2-methylpropyl)amino)-3′-{[3-(trifluoromethyl)-1,2,4-thiadiazol-5-yl]amino}-[1,1′-biphenyl]-2-carboxylic acid]",<5,0.00794 µM
"CC(C)CN(c1ccc(C(C)CC(=O)O)cc1NC1CCN(C)C1)C1CCCCC1 (stereo not shown) [example 144, 3-{4-[cyclohexyl(2-methylpropyl)amino]-3-[(1-methylpyrrolidin-3-yl)amino]phenyl}butanoic acid]",<5,3.16 µM
"CC(C)CN(c1ccc(-c2cccnc2C(=O)O)cc1Nc1nc(Cl)ns1)C1CCOCC1 [example 270, 3-{3-[(3-chloro-1,2,4-thiadiazol-5-yl)amino]-4-[(2-methylpropyl)(oxan-4-yl)amino]phenyl}pyridine-2-carboxylic acid]",<5,1.58 µM
"COCc1ncc(Nc2cc(C(C)CC(=O)O)ccc2N(CC(C)C)CC(C)C)o1 (stereo not shown) [example 191, 3-{4-[bis(2-methylpropyl)amino]-3-{[2-(methoxymethyl)-1,3-oxazol-5-yl]amino]phenyl}butanoic acid]",<5,2 µM
"CC(C)CN(CC(C)C)c1ccc(-c2ccccc2C(=O)O)cc1Nc1ccn(C)n1 [example 280, 4′-[bis(2-methylpropyl)amino]-3′-[(1-methyl-1H-pyrazol-3-yl)amino]-[1,1′-biphenyl]-2-carboxylic acid]",<5,2.51 µM
"CC(C)CN(CC(C)C)c1ccc(C(C)CC(=O)O)cc1Nc1ncc(-c2ccccc2)o1 (stereo not shown) [example 121, 3-{4-[bis(2-methylpropyl)amino]-3-[(5-phenyl-1,3-oxazol-2-yl)amino]phenyl}butanoic acid]",4.4,7.94 µM
"CC(C)CN(c1ccc(-c2ccccc2C(=O)O)cc1Nc1nc(C(F)(F)F)ns1)C1CCN(C)CC1 [example 274, 4′-[(1-methylpiperidin-4-yl)(2-methylpropyl)amino]-3′-{[3-(trifluoromethyl)-1,2,4-thiadiazol-5-yl]amino}-[1,1′-biphenyl]-2-carboxylic acid]",<5,1 µM
"Cc1nc(Cc2ccccc2)c(Nc2cc(C(C)CC(=O)O)ccc2N(CC(C)C)CC(C)C)s1 (stereo not shown) [example 146, 3-{3-[(4-benzyl-2-methyl-1,3-thiazol-5-yl)amino]-4-[bis(2-methylpropyl)amino]phenyl}butanoic acid]",<5,> 10 µM
"CC(C)CN(c1ccc([C@H](C)CC(=O)O)cc1NC1CCC(C)(C)CC1)C1CCCCC1 [example 182, (3R)-3-{4-[cyclohexyl(2-methylpropyl)amino]-3-[(4,4-dimethylcyclohexyl)ami-no]phenyl}butanoic acid]",<5,5.01 µM
"CC(C)CN(c1ccc(-c2ccccc2C(=O)NS(C)(=O)=O)cc1Nc1nc(C(F)(F)F)ns1)C1CCCCC1 [example 282, 4′-[cyclohexyl(2-methylpropyl)amino]-N-methanesulfonyl-3-′ {[3-(trifluoromethyl)-1,2,4-thiadiazol-5-yl]amino}-[1,1′-biphenyl]-2-carboxamide]",<5,0.0501 µM
"COCc1ncc(Nc2cc(C(C)CC(=O)O)ccc2N(CC(C)C)CC(C)C)s1 (stereo not shown) [example 189, 3-{4-[bis(2-methylpropyl)amino]-3-{[2-(methoxymethyl)-1,3-thiazol-5-yl]amino}phenyl}butanoic acid]",<5,0.2 µM
"CC(C)CN(c1ccc(-c2ncccc2C(=O)O)cc1Nc1nc2ccccc2o1)C1CCCCC1 [example 292, 2-{3-[(1,3-benzoxazol-2-yl)amino]-4-[cyclohexyl(2-methylpropyl)amino]phenyl}pyridine-3-carboxylic acid]",<5,0.794 µM
"CC(C)CN(CC(C)C)c1ccc(C(C)CC(=O)O)cc1Nc1ccc(C(N)=O)cn1 (stereo not shown) [example 204, 3-{4-[bis(2-methylpropyl)amino]-3-[(5-carbamoylpyridin-2-yl)amino]phenyl}butanoic acid]",<5,3.16 µM
